Results: patent US5656600A, “α-ketoamide derivatives as inhibitors of thrombosis” (Corvas International, Inc., priority 1993, dated 1997)

Tests used:
[1] = target: α-thrombin (Homo sapiens, UniProt P00734); assay: Thrombin-induced clotting of purified fibrinogen; format: biochemical; settings: preincubation with α-thrombin up to 60 minutes before fibrinogen
Method: Inhibition is reflected as an increase in the relative clotting time which is the ratio of the […]. The control clotting time in this assay is 16.2±0.78 sec.
The clotting time of fibrinogen following the addition of the thrombin/inhibitor complex was measured optically using the Coag-A-Mate XC automated coagulometer (General Diagnostics, Organon Technica, Oklahoma City, OK). […] Haemostas., 69:130-134 (1993).

[2] = tested on: pooled normal human plasma; assay: Ex vivo coagulation assay (APTT); settings: normal citrated human plasma; FIG. 3
Method: Fresh frozen pooled normal human plasma was obtained from George King Biomedical, Overland Park, KA. Measurements APTT was made using the Coag-A-Mate RA4 automated coagulometer (General Diagnostics, Organon Technica, Oklahoma City, OK) using the Automated APTT reagent (Organon Technica, Durham, NC) as the initiator of clotting according to the manufacturers instructions. The assay was conducted by making a series of dilutions of the test compounds in rapidly thawed plasma followed by adding 200 μL to the wells of the assay carousel.

[3] = tested on: Rat Venous Stasis Model; assay: Venous stasis in rats (thromboplastin plus stasis, inferior vena cava); format: in vivo; settings: for % Clot: mean ± S.E.M.
Method: This is one of the most commonly used models in the evaluation of antithrombotic compounds. Hladovec, J. Thromb. […] Talbot, M. D., et. al., Thromb.
Male Harlan Sprague Dawley rats (420-450 g) were acclimated at least 72 hours prior to use. The animals were fasted for 12 hours prior to surgery with free access to water. The animals were anesthetized with a sodium pentobarbital (Nembutal) given intraperitoneally at a dose of 50 mg/kg body weight and placed on a isothermal pad to maintain body temperature. The level of anesthesia was monitored every 15 minutes by: neuro-response to a tail pinch, respiration and body core temperature. The desired depth of surgical anesthesia was maintained by administering subsequent doses (5 mg/kg) intravenously. The left femoral artery was catheterized with polyethylene tubing (PE50) using standard procedures for blood pressure monitoring and blood sampling. The left and right femoral veins were catheterized with PE50 tubing for delivery of anesthetic and test compounds respectively.
Blood pressure, heart rate, core temperature and respiration were monitored continuously.
The abdomen of the animals is opened by making a vertical midline incision followed by isolation of the IVC using dissection. The segment extends from below the renal to above the iliac vessels (about 2 cm in length). The peripheral blood vessels are tied off and a ligature is loosely placed at the distal and proximal ends of the isolated segment. Rabbit brain thromboplastin (RBT) (Sigma Chemical Co., St. Louis MO) is prepared by resuspending the contents of the vial with 2 mL of sterile saline pre-warmed to 37° C. At the end of the 30 minute infusion period, RBT is systemically administered as a bolus injection (1.5 mL/kg) via the femoral catheter. Stasis is induced within the isolated IVC segment by securing the proximal and distal ligature 10 sec following the administration of the RBT. Following a 30 minute period of stasis the tied off IVC segment is removed and the contents weighed. Clot formation was defined as %clot: [Weight of the isolated clot/(Weight of the intact segment-the weight of the empty segment)]×100. This method was used to correct for slight differences in segment size and fluid content.
Following termination of the experiment the animal was euthanized with a 120 mg/kg dose of Nembutal.

[4] = target: thrombin (Homo sapiens, UniProt P00734); settings: literature values; read-out: Ki (thrombin), reported; cited from earlier work

(D--Phe)--Pro--Arg--Pro--(Gly4 --Asn--Gly--Asp--Phe--Glu--Glu--IIe--Pro--Glu--Glu--Tyr--Leu--OH [Compound 25]
proteolytic inactivation by thrombin upon prolonged incubation [1]: sensitive to proteolytic degradation with re-emergence of thrombin activity | prolongation of activated partial thromboplastin time (APTT) [2]: prolonged the APTT in a dose dependent manner | % Clot ([3]; 0.1 mg/kg i.v. bolus + 40 μg/kg/min i.v. infusion): 25.75 ± 3.71% | % Clot ([3]; 0.1 mg/kg i.v. bolus + 60 μg/kg/min i.v. infusion): 26.50 ± 3.59% | % Clot ([3]; 0.1 mg/kg i.v. bolus + 80 μg/kg/min i.v. infusion): 25.75 ± 0.41% | effect on venous thrombus formation induced by stasis and thromboplastin ([3]; summary in words): did not have any effect of thrombus formation | Ki [4]: 2.56 nM
